Measured values taken from article PMC7774954, “Interactomic affinity profiling by holdup assay: Acetylation and distal residues impact the PDZome-binding specificity of PTEN phosphatase” (PLoS ONE, 2020).
*1 amine or outer side, *2 acyl side, *3 side chain or, on linkers, in order; H or OH if unused. Where a SMILES comes first, the peptide text is derived from it. The star is where a group is joined. X1 = O=C(CCCC[C@@H]1SC[C@@H]2NC(=O)N[C@@H]21)NCCCOCCOCCOCCCN*; Suc = O=C(CCC(=O)[*:2])[*:1]

Experiments:
HTRA4-1 = assay: Holdup assay, HTRA4-1; type: binding, human
CARD11-1 = assay: Holdup assay, CARD11-1; type: binding, human
LNX2-2 = molecular target: T1, LNX2-2 (Homo sapiens, UniProt Q8N448); assay: Holdup assay, LNX2-2; type: binding
T1 sequence (Q8N448 339-422): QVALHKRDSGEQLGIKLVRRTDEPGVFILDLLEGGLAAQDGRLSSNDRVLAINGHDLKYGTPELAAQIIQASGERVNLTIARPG

CNKSR3-1 = assay: Holdup assay, CNKSR3-1; type: binding, human
LNX2-4 = assay: Holdup assay, LNX2-4; type: binding, human
HTRA3-1 = assay: Holdup assay, HTRA3-1; type: binding, human
INADL-8 = INADL-8 (Homo sapiens, UniProt Q8NI35); assay: Holdup assay, INADL-8; type: binding
HTRA2-1 = assay: Holdup assay, HTRA2-1; type: binding, human
DLG5-3 = assay: Holdup assay, DLG5-3; type: binding, human
DLG4 PDZ 3 = molecular target: T2, DLG4 PDZ 3 (Homo sapiens, UniProt P78352); assay: Holdup assay, DLG4-3; type: binding
T2 construct: made in house; host or cells: E. coli
Procedure: (§1) The holdup assay was performed on a Tecan freedom Evo200 robot with 384-well plates in singlicate for the three 11-mer PTEN variants and the 13-mer PTEN peptide as described in [31, 32]. Briefly, prior to interaction assay, 2.5 μL of streptavidin resin was saturated in each well with 20 μL of biotinylated PBM peptides (42 μM) and then washed twice with an excess of free biotin, while the reference resin was incubated only with biotin. Right before the holdup experiment, the PDZ library was spiked with an internal standard of lysozyme. Then, the biotin- or PBM-saturated resin was incubated, each in a distinct well of a 384-well plate, with complete cell lysates diluted so that the concentration of the tag-PDZ present in the crude extract is adjusted at 4 μM. After a sufficient time to reach complex equilibrium (15 min.), a fast and mild filtration step is performed and the tag-PDZ concentrations were measured by capillary electrophoresis instrument (LabChip GXII, PerkinElmer, Massachusets, USA). Standard markers were used to convert migration time into molecular weight on the LabChip software and inappropriate molecular weight markers were corrected or excluded.
(§2) For filtered data, the BI was extracted with the following equation (Eq 1) that estimates the depleted fraction after superimposition of the sample and reference electropherograms: BI=Iref−Ilig/Iref (1) where Iref and Ilig are the intensities of the tag-PDZ peaks measured, for each PDZ domain/PBM peptide interaction pair, in the biotin reference and the PBM electropherograms, respectively.
(§3) BIs were transformed into dissociation constants (KD) using the following formula: KD=([PDZtot]−BI·[PDZtot])·([PBMtot]−BI·[PDZtot])/BI·[PDZtot] (2) where [PDZtot] and [PBMtot] correspond to the total concentrations of the PDZ domain (usually around 4 μM) and the PBM peptide used during the assay. Since the PBMtot concentration in the resin during the holdup assay parameter may differ from one peptide to another and remains unknown, it is impossible to directly convert BI values into KD constants. We systematically determined the KD constants for a subset of PDZ/PBM pairs by competitive FP. […] For each PBM, the average peptide concentration was calculated after outlier rejection based on the absolute distances from the median as compared to three times the standard deviation (3σ rule), with never more than 2 values rejected.

MAST1 PDZ 1 = molecular target: T3, MAST1 PDZ 1 (Homo sapiens, UniProt Q9Y2H9); assay: Holdup assay, MAST1-1; type: binding; details: for BI: MAST1-1
T3 construct: made in house; host or cells: E. coli
T3 sequence (Q9Y2H9 967-1055 limits assumed): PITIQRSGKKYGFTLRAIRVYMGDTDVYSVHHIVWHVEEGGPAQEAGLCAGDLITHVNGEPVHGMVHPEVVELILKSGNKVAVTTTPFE
Procedure: as §1, §2, §3

MPDZ-11 = MPDZ-11 (Homo sapiens, UniProt O75970); assay: Holdup assay, MPDZ-11; type: binding
MAGI2-4 = MAGI2-4 (Homo sapiens, UniProt Q86UL8); assay: Holdup assay, MAGI2-4; type: binding
MAST2 PDZ 1 = molecular target: T4, MAST2 PDZ 1 (Homo sapiens, UniProt Q6P0Q8); assay: Holdup assay, MAST2-1; type: binding; details: for BI: MAST2-1
T4 construct: made in house; host or cells: E. coli
T4 sequence (Q6P0Q8 1104-1192 limits assumed): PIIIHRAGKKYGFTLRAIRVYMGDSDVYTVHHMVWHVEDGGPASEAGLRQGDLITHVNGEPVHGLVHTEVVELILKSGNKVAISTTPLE
Procedure: as §1, §2, §3

DLG5-4 = assay: Holdup assay, DLG5-4; type: binding, human
ARHGAP23-1 = assay: Holdup assay, ARHGAP23-1; type: binding, human
ARHGAP21-1 = assay: Holdup assay, ARHGAP21-1; type: binding, human
LAP2-1 = LAP2-1 (Homo sapiens, UniProt Q96RT1); assay: Holdup assay, LAP2-1; type: binding
LRRC7-1 = LRRC7-1 (Homo sapiens, UniProt Q96NW7); assay: Holdup assay, LRRC7-1; type: binding
PTPN13 PDZ 2 = molecular target: T5, PTPN13 PDZ 2 (Homo sapiens, UniProt Q12923); assay: Holdup assay, PTPN13-2; type: binding; details: for BI: PDZ domain PTPN13-2
T5 construct: made in house; host or cells: E. coli
T5 sequence (Q12923 1368-1452 limits assumed): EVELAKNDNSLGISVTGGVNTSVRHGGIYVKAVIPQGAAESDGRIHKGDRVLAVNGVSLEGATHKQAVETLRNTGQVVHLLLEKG
Procedure: as §1, §2, §3

LNX1-3 = assay: Holdup assay, LNX1-3; type: binding, human
SCRIB-3 = molecular target: T6, SCRIB-3 (Homo sapiens, UniProt Q14160); assay: Holdup assay, SCRIB-3; type: binding; details: PDZ domain SCRIB-3
T6 construct: Representative holdup data recorded for three PDZ domains (MAST2-1, HTRA1-1, SCRIB-3); made in house; host or cells: E. coli
T6 sequence (Q14160 1004-1093 limits assumed): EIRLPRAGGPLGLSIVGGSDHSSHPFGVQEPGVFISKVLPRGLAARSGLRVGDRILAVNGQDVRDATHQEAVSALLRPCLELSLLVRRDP
Procedure: as §1, §2

Sequence of MAGI2-4 (Q86UL8 whole entry): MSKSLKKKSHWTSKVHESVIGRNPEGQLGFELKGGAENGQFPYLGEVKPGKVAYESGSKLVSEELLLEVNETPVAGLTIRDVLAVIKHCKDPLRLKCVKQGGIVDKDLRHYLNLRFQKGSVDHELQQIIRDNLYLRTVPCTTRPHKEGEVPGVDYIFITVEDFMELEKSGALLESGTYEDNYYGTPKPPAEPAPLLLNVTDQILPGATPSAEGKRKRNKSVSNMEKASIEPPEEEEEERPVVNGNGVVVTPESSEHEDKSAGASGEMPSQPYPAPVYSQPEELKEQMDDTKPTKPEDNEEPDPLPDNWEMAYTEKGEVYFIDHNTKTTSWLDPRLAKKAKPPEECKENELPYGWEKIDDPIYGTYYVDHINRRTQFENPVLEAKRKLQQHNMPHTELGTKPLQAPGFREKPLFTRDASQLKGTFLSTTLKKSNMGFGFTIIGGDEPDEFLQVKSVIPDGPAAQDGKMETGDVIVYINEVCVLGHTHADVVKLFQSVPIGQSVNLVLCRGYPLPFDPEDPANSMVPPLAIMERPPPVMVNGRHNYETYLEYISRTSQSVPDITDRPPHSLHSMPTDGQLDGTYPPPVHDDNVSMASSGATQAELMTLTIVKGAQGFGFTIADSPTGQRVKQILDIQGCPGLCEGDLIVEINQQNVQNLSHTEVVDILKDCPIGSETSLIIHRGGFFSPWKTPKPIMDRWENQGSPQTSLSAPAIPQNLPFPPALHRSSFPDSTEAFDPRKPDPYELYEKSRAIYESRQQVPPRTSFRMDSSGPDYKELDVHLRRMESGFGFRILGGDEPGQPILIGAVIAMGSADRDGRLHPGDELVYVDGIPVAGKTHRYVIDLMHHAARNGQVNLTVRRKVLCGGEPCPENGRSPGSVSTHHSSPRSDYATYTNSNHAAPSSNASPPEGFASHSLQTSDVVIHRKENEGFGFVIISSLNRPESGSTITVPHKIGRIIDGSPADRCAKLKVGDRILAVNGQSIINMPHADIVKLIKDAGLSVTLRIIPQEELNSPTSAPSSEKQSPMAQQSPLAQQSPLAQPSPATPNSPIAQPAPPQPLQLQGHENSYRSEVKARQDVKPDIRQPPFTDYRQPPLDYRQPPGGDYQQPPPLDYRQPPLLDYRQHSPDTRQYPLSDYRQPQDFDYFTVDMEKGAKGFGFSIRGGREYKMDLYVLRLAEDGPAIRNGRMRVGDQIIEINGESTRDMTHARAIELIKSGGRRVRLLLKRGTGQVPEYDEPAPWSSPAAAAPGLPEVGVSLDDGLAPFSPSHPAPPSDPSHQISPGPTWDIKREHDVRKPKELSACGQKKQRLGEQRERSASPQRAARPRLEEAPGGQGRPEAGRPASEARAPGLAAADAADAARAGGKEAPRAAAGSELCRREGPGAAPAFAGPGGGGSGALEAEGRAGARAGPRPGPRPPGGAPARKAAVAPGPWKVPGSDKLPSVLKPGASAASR
Sequence of INADL-8 (Q8NI35 whole entry): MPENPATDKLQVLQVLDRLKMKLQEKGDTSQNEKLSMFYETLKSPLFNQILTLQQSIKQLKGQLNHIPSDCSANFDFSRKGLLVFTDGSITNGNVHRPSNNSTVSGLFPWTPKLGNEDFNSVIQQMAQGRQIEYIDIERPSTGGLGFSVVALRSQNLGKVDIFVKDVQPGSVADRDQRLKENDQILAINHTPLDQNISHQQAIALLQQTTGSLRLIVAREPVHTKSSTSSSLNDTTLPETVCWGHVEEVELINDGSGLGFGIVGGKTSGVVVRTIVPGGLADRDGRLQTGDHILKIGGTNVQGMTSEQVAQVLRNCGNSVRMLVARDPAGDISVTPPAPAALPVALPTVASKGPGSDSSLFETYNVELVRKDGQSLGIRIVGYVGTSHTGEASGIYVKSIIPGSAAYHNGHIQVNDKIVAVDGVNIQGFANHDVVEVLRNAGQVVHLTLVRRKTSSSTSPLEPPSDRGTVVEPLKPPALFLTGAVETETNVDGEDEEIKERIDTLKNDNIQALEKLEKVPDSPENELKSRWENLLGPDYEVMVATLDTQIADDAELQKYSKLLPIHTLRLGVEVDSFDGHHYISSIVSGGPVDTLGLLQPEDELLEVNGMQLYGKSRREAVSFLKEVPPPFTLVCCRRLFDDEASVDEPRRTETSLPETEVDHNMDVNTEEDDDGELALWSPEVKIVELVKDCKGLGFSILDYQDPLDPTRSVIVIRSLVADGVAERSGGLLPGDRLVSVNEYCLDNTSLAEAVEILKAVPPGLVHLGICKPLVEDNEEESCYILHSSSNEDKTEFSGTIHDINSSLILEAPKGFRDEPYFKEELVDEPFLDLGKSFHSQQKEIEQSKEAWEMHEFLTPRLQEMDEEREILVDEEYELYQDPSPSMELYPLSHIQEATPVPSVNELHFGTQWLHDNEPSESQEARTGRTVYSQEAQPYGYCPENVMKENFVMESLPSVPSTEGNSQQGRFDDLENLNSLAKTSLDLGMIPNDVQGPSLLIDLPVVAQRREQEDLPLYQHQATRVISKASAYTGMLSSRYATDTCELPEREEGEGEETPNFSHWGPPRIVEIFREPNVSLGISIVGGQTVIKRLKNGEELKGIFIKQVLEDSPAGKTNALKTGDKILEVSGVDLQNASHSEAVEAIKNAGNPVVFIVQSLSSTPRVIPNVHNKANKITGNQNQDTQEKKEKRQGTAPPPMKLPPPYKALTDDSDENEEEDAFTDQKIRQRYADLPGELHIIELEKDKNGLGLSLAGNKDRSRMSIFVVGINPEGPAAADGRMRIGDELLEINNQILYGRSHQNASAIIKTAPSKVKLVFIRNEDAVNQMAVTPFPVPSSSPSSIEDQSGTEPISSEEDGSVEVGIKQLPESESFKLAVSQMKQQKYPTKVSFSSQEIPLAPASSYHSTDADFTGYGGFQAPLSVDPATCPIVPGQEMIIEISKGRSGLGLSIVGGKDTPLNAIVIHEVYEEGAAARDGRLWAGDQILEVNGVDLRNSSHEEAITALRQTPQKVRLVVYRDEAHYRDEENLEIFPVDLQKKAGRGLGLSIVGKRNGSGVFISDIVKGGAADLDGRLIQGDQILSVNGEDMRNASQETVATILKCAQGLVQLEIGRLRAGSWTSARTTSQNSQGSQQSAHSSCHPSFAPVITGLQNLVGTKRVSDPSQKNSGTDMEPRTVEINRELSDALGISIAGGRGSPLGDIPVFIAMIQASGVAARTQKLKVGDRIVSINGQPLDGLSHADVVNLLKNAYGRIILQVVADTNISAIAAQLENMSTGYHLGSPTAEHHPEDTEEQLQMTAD
Sequence of LRRC7-1 (Q96NW7 with tags, fused parts or gaps): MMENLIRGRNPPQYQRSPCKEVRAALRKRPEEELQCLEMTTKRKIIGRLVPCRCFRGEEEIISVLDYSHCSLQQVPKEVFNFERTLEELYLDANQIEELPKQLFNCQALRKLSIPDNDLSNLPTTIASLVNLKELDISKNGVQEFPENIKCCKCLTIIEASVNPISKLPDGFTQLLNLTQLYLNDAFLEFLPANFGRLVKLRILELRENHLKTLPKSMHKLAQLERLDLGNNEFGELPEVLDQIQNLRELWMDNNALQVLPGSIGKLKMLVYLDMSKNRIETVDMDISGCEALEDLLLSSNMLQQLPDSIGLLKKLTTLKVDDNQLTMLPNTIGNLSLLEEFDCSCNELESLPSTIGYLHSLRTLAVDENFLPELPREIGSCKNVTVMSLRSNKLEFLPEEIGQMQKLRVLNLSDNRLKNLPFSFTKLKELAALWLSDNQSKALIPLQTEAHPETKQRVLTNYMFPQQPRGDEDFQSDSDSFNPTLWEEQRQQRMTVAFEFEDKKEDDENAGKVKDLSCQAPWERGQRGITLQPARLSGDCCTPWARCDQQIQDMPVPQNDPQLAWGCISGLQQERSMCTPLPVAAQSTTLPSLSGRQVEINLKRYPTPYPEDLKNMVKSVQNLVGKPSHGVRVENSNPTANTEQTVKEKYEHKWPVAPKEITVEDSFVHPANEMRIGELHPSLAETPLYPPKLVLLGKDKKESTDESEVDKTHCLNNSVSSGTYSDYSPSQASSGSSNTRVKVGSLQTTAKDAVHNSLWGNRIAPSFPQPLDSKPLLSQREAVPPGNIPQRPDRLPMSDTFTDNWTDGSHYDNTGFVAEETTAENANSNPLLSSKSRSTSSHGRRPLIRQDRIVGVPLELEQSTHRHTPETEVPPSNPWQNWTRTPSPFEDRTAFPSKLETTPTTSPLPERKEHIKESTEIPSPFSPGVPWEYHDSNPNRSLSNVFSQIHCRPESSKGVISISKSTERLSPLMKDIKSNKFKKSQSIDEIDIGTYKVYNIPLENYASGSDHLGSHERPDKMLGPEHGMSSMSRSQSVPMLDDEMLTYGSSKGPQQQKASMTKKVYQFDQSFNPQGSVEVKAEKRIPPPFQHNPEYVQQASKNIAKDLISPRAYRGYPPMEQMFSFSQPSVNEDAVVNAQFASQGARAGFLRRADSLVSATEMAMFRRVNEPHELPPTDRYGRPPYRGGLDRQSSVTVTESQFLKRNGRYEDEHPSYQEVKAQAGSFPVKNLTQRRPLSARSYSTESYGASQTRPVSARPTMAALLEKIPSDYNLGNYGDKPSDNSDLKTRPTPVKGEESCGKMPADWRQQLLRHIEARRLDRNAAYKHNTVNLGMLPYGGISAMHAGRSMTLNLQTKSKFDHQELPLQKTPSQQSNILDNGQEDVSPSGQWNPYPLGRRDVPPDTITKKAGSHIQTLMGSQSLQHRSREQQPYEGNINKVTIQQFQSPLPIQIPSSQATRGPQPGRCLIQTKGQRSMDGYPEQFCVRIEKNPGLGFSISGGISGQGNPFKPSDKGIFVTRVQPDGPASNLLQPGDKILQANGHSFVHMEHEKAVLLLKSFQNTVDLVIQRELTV
Sequence of LAP2-1 (Q96RT1 1321-1410): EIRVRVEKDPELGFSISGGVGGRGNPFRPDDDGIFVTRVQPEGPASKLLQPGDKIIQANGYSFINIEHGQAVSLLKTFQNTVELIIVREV
T2 sequence (P78352 313-393 limits assumed): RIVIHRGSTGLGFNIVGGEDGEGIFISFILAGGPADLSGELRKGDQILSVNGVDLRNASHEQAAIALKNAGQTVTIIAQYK

Structure (SMILES) | BI (HTRA4-1) | BI (CARD11-1) | BI (LNX2-2) | BI (LNX2-4) | BI (HTRA3-1) | BI (INADL-8) | Kd (INADL-8) | BI (HTRA2-1) | BI (DLG5-3) | BI (DLG4 PDZ 3) | Kd (MAST1 PDZ 1) | BI (MPDZ-11) | BI (MAGI2-4) | Kd (MAST2 PDZ 1) | BI (MAST2 PDZ 1) | BI (DLG5-4) | BI (ARHGAP23-1) | BI (ARHGAP21-1) | BI (LAP2-1) | BI (LRRC7-1) | also measured
CC[C@H](C)[C@H](NC(=O)[C@H](CCC(N)=O)NC(=O)[C@@H](NC(=O)[C@H](Cc1c[nH]cn1)NC(=O)[C@H](CCC(N)=O)NC(=O)[C@H](CC(=O)O)NC(=O)[C@H](CCC(=O)O)NC(=O)[C@H](CC(=O)O)NC(=O)[C@H](Cc1ccccc1)NC(=O)[C@@H]1CCCN1C(=O)CCC(=O)NCCCOCCOCCOCCCNC(=O)CCCC[C@@H]1SC[C@@H]2NC(=O)N[C@@H]21)[C@@H](C)O)C(=O)N[C@H](C(=O)N[C@@H](CCCCN)C(=O)N[C@H](C(=O)O)C(C)C)[C@@H](C)O [PTEN_13] ({X1-Suc}-PFDEDQHTQITKV-OH) | 0.011 | -0.006 | 0.136 | 0.093 | -0.059 | 0.247 | 48.8 µM | -0.097 | 0.002 | -0.097 | 7.64 µM | 0.012 | -0.036 | 1.28 µM | 0.88 | -0.028 | -0.062 | 0.028 | 0.172 | 0.042 | BI (CNKSR3-1): 0.002; LogKD (MPDZ-11): 3.826; LogKD (MAGI2-4): 3.826; LogKD (LRRC7-1): 3.826; Kd (PTPN13 PDZ 2): 16.2 µM; BI (PTPN13 PDZ 2): 0.482; BI (LNX1-3): 0.016; BI (SCRIB-3): -0.068
CC[C@H](C)[C@H](NC(=O)[C@H](CCC(N)=O)NC(=O)[C@@H](NC(=O)[C@H](Cc1c[nH]cn1)NC(=O)[C@H](CCC(N)=O)NC(=O)[C@H](CC(=O)O)NC(=O)[C@H](CCC(=O)O)NC(=O)[C@H](CC(=O)O)NC(=O)CCC(=O)NCCCOCCOCCOCCCNC(=O)CCCC[C@@H]1SC[C@@H]2NC(=O)N[C@@H]21)[C@@H](C)O)C(=O)N[C@H](C(=O)N[C@@H](CCCNC(=N)N)C(=O)N[C@H](C(=O)O)C(C)C)[C@@H](C)O [PTEN_KR] ({X1-Suc}-DEDQHTQITRV-OH) | 0.004 | -0.097 | 0.256 | -0.045 | 0.065 | 0.532 | 20.1 µM | -0.042 | -0.084 | 0.043 | 32.2 µM | 0.02 | 0.116 | 6.66 µM | 0.767 | -0.107 | -0.018 | 0.074 | 0.205 | 0.14 | LogKD (HTRA4-1): 3.655; LogKD (CARD11-1): 3.655; Kd (LNX2-2): 69.7 µM; BI (CNKSR3-1): -0.031; LogKD (CNKSR3-1): 3.655; LogKD (LNX2-4): 3.655; LogKD (HTRA3-1): 3.655; LogKD (HTRA2-1): 3.655; LogKD (DLG5-3): 3.655; BI (MAST1 PDZ 1): 0.42; LogKD (MPDZ-11): 3.655; LogKD (DLG5-4): 3.655; LogKD (ARHGAP23-1): 3.655; LogKD (ARHGAP21-1): 3.655; Kd (LAP2-1): 93.8 µM; BI (PTPN13 PDZ 2): 0.138; BI (SCRIB-3): 0.022
CC[C@H](C)[C@H](NC(=O)[C@H](CCC(N)=O)NC(=O)[C@@H](NC(=O)[C@H](Cc1c[nH]cn1)NC(=O)[C@H](CCC(N)=O)NC(=O)[C@H](CC(=O)O)NC(=O)[C@H](CCC(=O)O)NC(=O)[C@H](CC(=O)O)NC(=O)CCC(=O)NCCCOCCOCCOCCCNC(=O)CCCC[C@@H]1SC[C@@H]2NC(=O)N[C@@H]21)[C@@H](C)O)C(=O)N[C@H](C(=O)N[C@@H](CCCCNC(C)=O)C(=O)N[C@H](C(=O)O)C(C)C)[C@@H](C)O [PTEN_Ac] | -0.059 | -0.116 | 0.68 | 0.013 | 0.011 | 0.509 | 25 µM | -0.074 | -0.047 | -0.024 | 26.3 µM | 0.145 | 0.1 | 4.07 µM | 0.858 | -0.1 | -0.108 | 0.012 | 0.214 | -0.028 | LogKD (HTRA4-1): 3.605; LogKD (CARD11-1): 3.605; Kd (LNX2-2): 11.9 µM; LogKD (LNX2-4): 3.605; LogKD (HTRA3-1): 3.605; LogKD (HTRA2-1): 3.605; LogKD (DLG5-3): 3.605; BI (MAST1 PDZ 1): 0.497; LogKD (MAGI2-4): 3.605; LogKD (DLG5-4): 3.605; LogKD (ARHGAP23-1): 3.605; LogKD (ARHGAP21-1): 3.605; Kd (LAP2-1): 99.7 µM; LogKD (LRRC7-1): 3.605; BI (PTPN13 PDZ 2): 0.044; BI (LNX1-3): 0.072; LogKD (LNX1-3): 3.605; BI (SCRIB-3): -0.053
